According to ChEMBL document CHEMBL4406876, “Design, synthesis and biological research of novel N-phenylbenzamide-4-methylamine acridine derivatives as potential topoisomerase I/II and apoptosis-inducing agents” (Bioorg Med Chem Lett, 2019):
Active and inactive are the calls of the source. The rule behind the calls is not given here.

What was measured:
K562 = test: Antiproliferative against human K562 cells incubated for 72 hrs by MTT assay; type: functional, cell-based; conditions: K562, 72 h
U-937 = test: Antiproliferative against human U937 cells incubated for 72 hrs by MTT assay; type: functional, cell-based; conditions: U-937, 72 h
CCRF-CEM [1] = test: Antiproliferative against human CCRF-CEM cells incubated for 72 hrs by MTT assay; type: functional, cell-based
CCRF-CEM [2] = test: Induction of apoptosis in human CCRF-CEM cells at 0.5 to 2 uM incubated for 48 hrs by Annexin V-FITC/PI staining based fluorescence based assay; type: functional, cell-based
[3] = target: DNA topoisomerase II (Homo sapiens) (UniProt P11388+Q02880); test: Inhibition of DNA topoisomerase-2 (unknown origin) at 100 uM relative to control; type: protein assay
[4] = target: T1, DNA topoisomerase 1 (Homo sapiens) (UniProt P11387); test: Inhibition of DNA topoisomerase-1 (unknown origin) at 100 uM relative to control
T1 sequence (whole entry): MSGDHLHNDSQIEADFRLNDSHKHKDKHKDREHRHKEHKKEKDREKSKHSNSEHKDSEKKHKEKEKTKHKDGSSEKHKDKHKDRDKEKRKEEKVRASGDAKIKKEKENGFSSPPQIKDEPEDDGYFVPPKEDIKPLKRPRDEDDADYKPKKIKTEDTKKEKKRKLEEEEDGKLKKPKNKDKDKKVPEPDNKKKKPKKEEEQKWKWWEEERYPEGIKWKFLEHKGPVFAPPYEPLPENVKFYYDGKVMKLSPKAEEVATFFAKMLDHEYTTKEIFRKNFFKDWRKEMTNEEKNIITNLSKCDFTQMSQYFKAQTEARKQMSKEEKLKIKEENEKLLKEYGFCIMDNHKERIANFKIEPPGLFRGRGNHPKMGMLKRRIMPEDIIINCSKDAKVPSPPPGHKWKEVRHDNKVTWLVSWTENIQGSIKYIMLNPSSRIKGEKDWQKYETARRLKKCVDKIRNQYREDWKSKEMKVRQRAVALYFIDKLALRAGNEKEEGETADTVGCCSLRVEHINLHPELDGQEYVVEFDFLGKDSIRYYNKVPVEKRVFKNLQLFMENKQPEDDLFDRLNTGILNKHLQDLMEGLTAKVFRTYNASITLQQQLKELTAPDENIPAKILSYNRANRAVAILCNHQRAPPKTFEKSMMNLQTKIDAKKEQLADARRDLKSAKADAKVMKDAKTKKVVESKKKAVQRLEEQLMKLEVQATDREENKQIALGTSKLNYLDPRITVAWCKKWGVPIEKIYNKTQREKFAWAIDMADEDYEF

CCRF-CEM [5] = test: Induction of DNA damage in human CCRF-CEM cells assessed as increase in gammaH2AX incubated for 48 hrs by Western blot analysis; type: functional, cell-based
CCRF-CEM [6] = test: Induction of apoptosis in human CCRF-CEM cells assessed as increase in late apoptotic cells incubated for 48 hrs by Annexin V-FITC/PI staining based fluorescence based assay; type: functional, cell-based
CCRF-CEM [7] = test: Induction of apoptosis in human CCRF-CEM cells assessed as increase in early apoptotic cells at 0.5 uM incubated for 48 hrs by Annexin V-FITC/PI staining based fluorescence based assay; type: functional, cell-based
CCRF-CEM [8] = test: Induction of apoptosis in human CCRF-CEM cells at 0.5 to 2 uM incubated for 48 hrs by Hoechst 33342/PI staining based fluorescence based assay; type: functional, cell-based
CCRF-CEM [9] = test: Induction of apoptosis in human CCRF-CEM cells assessed as increase in necrotic cells incubated for 48 hrs by Annexin V-FITC/PI staining based fluorescence based assay; type: functional, cell-based
CCRF-CEM [10] = test: Induction of apoptosis in human CCRF-CEM cells assessed as increase in early apoptotic cells at 2 uM incubated for 48 hrs by Annexin V-FITC/PI staining based fluorescence based assay; type: functional, cell-based

| SMILES | IC50 (K562) [µM] | IC50 (U-937) [µM] | IC50 (CCRF-CEM [1]) [µM] | inhibition [3] [%] | other results |
| --- | --- | --- | --- | --- | --- |
| NCc1ccc(C(=O)Nc2ccccc2)cc1 | > 10 | > 10 | > 10 | – | – |
| COc1ccc2nc3cc(Cl)ccc3c(Cl)c2c1 | > 10 | > 10 | > 10 | – | – |
| COc1cc(NS(C)(=O)=O)ccc1Nc1c2ccccc2nc2ccccc12 [AMSACRINE] | 0.71 | 0.08 | 0.03 | – | – |
| COc1cc([C@@H]2c3cc4c(cc3[C@@H](O[C@@H]3O[C@@H]5CO[C@@H](C)O[C@H]5[C@H](O)[C@H]3O)[C@H]3COC(=O)[C@H]23)OCO4)cc(OC)c1O | – | – | – | 40.9 | – |

Now from value to molecule, other results behind:

| IC50 (K562) [µM] | IC50 (U-937) [µM] | IC50 (CCRF-CEM [1]) [µM] | inhibition [3] [%] | SMILES | other results |
| --- | --- | --- | --- | --- | --- |
| 1.32 | 1.42 | 0.9 | – | COc1ccc2c(NCc3ccc(C(=O)Nc4ccccc4)cc3)c3ccccc3nc2c1 | – |
| 1.43 | 0.23 | 0.89 | – | COc1cccc2c(NCc3ccc(C(=O)Nc4ccccc4)cc3)c3ccccc3nc12 | – |
| 0.91 | 1.49 | 1.28 | – | COc1ccccc1NC(=O)c1ccc(CNc2c3ccccc3nc3ccccc23)cc1 | – |
| 1.55 | 1.32 | 1.56 | 24 | O=C(Nc1ccccc1)c1ccc(CNc2c3ccccc3nc3ccccc23)cc1 | Activity (CCRF-CEM [2]): Active; inhibition [4]: 44.9% |
| 2.37 | 1.8 | 1.3 | – | COc1ccc2nc3cc(Cl)ccc3c(NCc3ccc(C(=O)Nc4ccccc4)cc3)c2c1 | – |
| 1.24 | 0.33 | 0.82 | 17.8 | COc1ccc2nc3ccccc3c(NCc3ccc(C(=O)Nc4ccccc4)cc3)c2c1 | Activity (CCRF-CEM [5]): Dose-dependent effect; Activity (CCRF-CEM [6]): Dose-dependent effect; inhibition [4]: 7.2%; Activity (CCRF-CEM [7]): Active; Activity (CCRF-CEM [8]): Active; Activity (CCRF-CEM [9]): Dose-dependent effect; Activity (CCRF-CEM [10]): Active |
